Assays:
Format in all cases: cell-based
[1] = target: T1, human muscarinic M1 receptor (Homo sapiens, UniProt P11229); experiment: Alphascreen Surefire phospho-ERK1/2 functional assay, M1; conditions: for EC50: CHO cells stably expressing human M1, read-out: pEC50 M1 (converted); for Emax: CHO, read-out: % Emax cf. ACh, M1, CHO cells stably expressing human M1, relative to ACh; for % Emax cf. ACh, M1: CHO cells stably expressing human M1, relative to ACh
T1 sequence (P11229 1-460): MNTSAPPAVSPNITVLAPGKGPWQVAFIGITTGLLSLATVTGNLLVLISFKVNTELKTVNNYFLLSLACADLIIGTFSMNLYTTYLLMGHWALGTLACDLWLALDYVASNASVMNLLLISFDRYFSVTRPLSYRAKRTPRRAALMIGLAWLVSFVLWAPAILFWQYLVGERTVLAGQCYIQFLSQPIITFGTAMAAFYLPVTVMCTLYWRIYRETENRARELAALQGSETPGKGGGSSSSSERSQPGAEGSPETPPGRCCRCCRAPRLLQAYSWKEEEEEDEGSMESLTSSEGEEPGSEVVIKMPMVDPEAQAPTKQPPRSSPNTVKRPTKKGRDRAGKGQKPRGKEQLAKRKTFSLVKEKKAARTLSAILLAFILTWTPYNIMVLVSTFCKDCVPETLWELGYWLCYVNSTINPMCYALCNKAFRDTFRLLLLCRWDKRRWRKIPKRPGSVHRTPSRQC

[2] = target: T2, human muscarinic M2 receptor (Homo sapiens, UniProt P08172); experiment: Alphascreen Surefire phospho-ERK1/2 functional assay, M2; conditions: for EC50: CHO cells stably expressing human M2, read-out: pEC50 M2 (converted); for Emax: CHO, read-out: % Emax cf. ACh, M2, CHO cells stably expressing human M2, relative to ACh; for % Emax cf. ACh, M2: CHO cells stably expressing human M2, relative to ACh
T2 sequence (P08172 1-466): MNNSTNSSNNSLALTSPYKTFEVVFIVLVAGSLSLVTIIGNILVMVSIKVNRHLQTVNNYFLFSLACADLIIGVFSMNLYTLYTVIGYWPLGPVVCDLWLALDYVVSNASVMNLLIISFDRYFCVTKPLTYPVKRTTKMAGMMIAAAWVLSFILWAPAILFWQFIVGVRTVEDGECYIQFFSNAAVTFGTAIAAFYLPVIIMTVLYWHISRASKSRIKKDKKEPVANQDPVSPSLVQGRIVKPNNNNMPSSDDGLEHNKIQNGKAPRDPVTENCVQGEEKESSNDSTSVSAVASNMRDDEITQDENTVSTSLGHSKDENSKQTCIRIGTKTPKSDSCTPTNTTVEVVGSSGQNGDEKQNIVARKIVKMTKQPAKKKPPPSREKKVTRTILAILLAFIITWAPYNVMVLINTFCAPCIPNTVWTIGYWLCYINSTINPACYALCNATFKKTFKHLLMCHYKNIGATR
Protocol: (§1) ERK1/2 phosphorylation is a downstream consequence of both Gq/11 and Gi/o protein coupled receptor activation, making it highly suitable for the assessment of M1, M3 (Gq/11 coupled) and M2, M4 receptors (Gi/o coupled), rather than using different assay formats for different receptor subtypes. CHO cells stably expressing the human muscarinic M1, M2, M3 or M4 receptor were plated (25K/well) onto 96-well tissue culture plates in MEM-alpha+10% dialysed FBS. Once adhered, cells were serum-starved overnight. Agonist stimulation was performed by the addition of 5 μL agonist to the cells for 5 min (37° C.). Media was removed and 50 μL of lysis buffer added. […] Plates were incubated for 2 h with gentle agitation in the dark and then read on a PHERAstar plate reader.
(§2) pEC50 and Emax figures were calculated from the resulting data for each receptor subtype.

[3] = target: T3, human muscarinic M3 receptor (Homo sapiens, UniProt P20309); experiment: Alphascreen Surefire phospho-ERK1/2 functional assay, M3; conditions: for EC50: CHO cells stably expressing human M3, read-out: pEC50 M3 (converted); for Emax: CHO, read-out: % Emax cf. ACh, M3, CHO cells stably expressing human M3, relative to ACh; for % Emax cf. ACh, M3: CHO cells stably expressing human M3, relative to ACh
T3 construct: expressed in transfected cells
T3 sequence (P20309 whole entry): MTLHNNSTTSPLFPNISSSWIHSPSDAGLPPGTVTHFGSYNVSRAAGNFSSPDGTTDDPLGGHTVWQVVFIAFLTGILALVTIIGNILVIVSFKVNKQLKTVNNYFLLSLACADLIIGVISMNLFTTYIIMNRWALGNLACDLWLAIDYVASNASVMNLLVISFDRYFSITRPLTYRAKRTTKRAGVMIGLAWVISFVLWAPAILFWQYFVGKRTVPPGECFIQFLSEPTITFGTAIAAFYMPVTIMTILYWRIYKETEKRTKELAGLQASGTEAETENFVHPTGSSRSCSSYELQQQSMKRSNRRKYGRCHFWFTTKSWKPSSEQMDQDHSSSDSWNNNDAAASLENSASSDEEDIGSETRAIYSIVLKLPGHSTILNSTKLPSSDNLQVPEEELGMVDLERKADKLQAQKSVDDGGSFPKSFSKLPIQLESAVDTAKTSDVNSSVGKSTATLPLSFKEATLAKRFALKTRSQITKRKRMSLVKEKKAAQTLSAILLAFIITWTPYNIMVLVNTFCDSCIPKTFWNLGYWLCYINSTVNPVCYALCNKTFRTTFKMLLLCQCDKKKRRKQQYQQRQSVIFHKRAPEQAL
Protocol: as §1, §2

[4] = target: T4, human muscarinic M4 receptor (Homo sapiens, UniProt P08173); experiment: Alphascreen Surefire phospho-ERK1/2 functional assay, M4; conditions: for EC50: CHO cells stably expressing human M4, read-out: pEC50 M4 (converted); for Emax: CHO, read-out: % Emax cf. ACh, M4, CHO cells stably expressing human M4, relative to ACh; for % Emax cf. ACh, M4: CHO cells stably expressing human M4, relative to ACh
T4 construct: expressed in transfected cells
T4 sequence (P08173 1-479): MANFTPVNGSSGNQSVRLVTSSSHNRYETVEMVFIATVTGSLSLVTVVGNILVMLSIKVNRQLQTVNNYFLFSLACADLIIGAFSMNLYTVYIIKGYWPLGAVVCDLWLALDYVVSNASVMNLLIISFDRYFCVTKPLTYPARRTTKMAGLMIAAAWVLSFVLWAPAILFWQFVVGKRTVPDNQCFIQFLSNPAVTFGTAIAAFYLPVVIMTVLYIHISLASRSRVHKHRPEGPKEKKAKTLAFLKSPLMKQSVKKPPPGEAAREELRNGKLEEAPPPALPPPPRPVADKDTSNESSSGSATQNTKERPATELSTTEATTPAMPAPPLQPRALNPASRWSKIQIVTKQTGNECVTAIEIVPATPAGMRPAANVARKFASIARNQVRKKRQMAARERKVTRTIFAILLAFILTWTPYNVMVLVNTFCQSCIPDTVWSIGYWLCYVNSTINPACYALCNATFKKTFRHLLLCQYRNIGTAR

SMILES	EC50 [1] [µM]	Emax [1] [%]	EC50 [2] [µM]	Emax [2] [%]	EC50 [3] [µM]	Emax [3] [%]	EC50 [4] [µM]	Emax [4] [%]	other results
CCCN1CC2(CCN(C3CC4CCC(C3)N4C(=O)OCC)CC2)CC1=O (single isomer, unassigned) [Example 2-25 Isomer 2, ethyl 3-(3-oxo-2-propyl-2,8-diazaspiro[4.5]dec-8-yl)-8-azabicyclo[3.2.1]octane-8-carboxylate]	0.251	53	> 20	15	> 20	12	0.251	25	
CCOC(=O)N1C2CCC1CC(N1CCC3(CC1)CC(=O)NC3CC)C2 (single isomer, unassigned) [Example 2-8 Isomer 1, ethyl 3-(1-ethyl-3-oxo-2,8-diazaspiro[4.5]decan-8-yl)-8-azabicyclo[3.2.1]octane-8-carboxylate]	0.02		> 20	4	12.6		> 20		% Emax cf. ACh, M1 ([1]; listed as 2-8 Isomer 1): 52%; % Emax cf. ACh, M3 ([3]; listed as 2-8 Isomer 1): 50%; % Emax cf. ACh, M4 ([4]; listed as 2-8 Isomer 1): 23%
CCOC(=O)N1CC2CC(N3CCC4(CC3)CNC(=O)C4)CC1C2 (single isomer, unassigned) [Example 6-2 Isomer 2]	0.002	118	0.0158	30	> 20	18	0.00398	78	
C#CCOC(=O)N1C2CCC1CC(N1CCC3(CC1)CNC(=O)C3)C2 (single isomer, unassigned) [Example 2-4 Isomer 2]	0.02						0.0251		% Emax cf. ACh, M1 [1]: 86%; % Emax cf. ACh, M2 ([2]; listed as 2-4 Isomer 2): 8%; % Emax cf. ACh, M3 ([3]; listed as 2-4 Isomer 2): 0%; % Emax cf. ACh, M4 [4]: 53%
CCOC(=O)N1C2CCC1CC(N1CCC3(CC1)CNC(=O)C3)C2 (single isomer, unassigned) [Example 2-2 Isomer 2, ethyl 3-(3-oxo-2,8-diazaspiro[4.5]dec-8-yl)-8-azabicyclo[3.2.1]octane-8-carboxylate]		86		0					% Emax cf. ACh, M3 ([3]; listed as 2-2 Isomer 2): 0%; % Emax cf. ACh, M4 ([4]; listed as 2-2 Isomer 2): 31%
CCOC(=O)N1C2CC[C@@H]1C[C@H](N1CCC3(CC1)CC(=O)N(O)C3)C2 [Example 2-24, ethyl (3-endo)-3-(2-hydroxy-3-oxo-2,8-diazaspiro[4.5]dec-8-yl)-8-azabicyclo[3.2.1]octane-8-carboxylate]	0.0631	88	> 20	4	> 20	4	> 20	29	
CCOC(=O)N1CC2CC(N3CCC4(CC3)CNC(=O)O4)CC1C2 (single isomer, unassigned) [Example 6-3 Isomer 2]	0.0251	112	1.26	24	> 20	48	0.0398	81	
CCOC(=O)N1C2CCC1CC(N1CCC3(CC1)OC(=O)NC3C(C)C)C2 (single isomer, unassigned) [Example 2-17 Isomer 2]	0.2						0.1		% Emax cf. ACh, M1 ([1]; listed as 2-17 Isomer 2): 117%; % Emax cf. ACh, M2 [2]: 3%; % Emax cf. ACh, M3 ([3]; listed as 2-17 Isomer 2): 12%; % Emax cf. ACh, M4 ([4]; listed as 2-17 Isomer 2): 72%
CCOC(=O)N1C2CCC1CC(N1CCC3(CC1)CC(=O)NC3Cc1ccccc1)C2 (single isomer, unassigned) [Example 2-10 Isomer 2]	0.0631						0.126		% Emax cf. ACh, M1 [1]: 77%; % Emax cf. ACh, M2 ([2]; listed as 2-10 Isomer 2): 11%; % Emax cf. ACh, M3 ([3]; listed as 2-10 Isomer 2): 13%; % Emax cf. ACh, M4 ([4]; listed as 2-10 Isomer 2): 50%
CCOC(=O)N1CC2CCC1CC2N1CCC2(CC1)CNC(=O)C2 (single isomer, unassigned) [Example 3-1 Isomer 2, ethyl 5-(3-oxo-2,8-diazaspiro[4.5]dec-8-yl)-2-azabicyclo[2.2.2]octane-2-carboxylate]	0.0631		> 20				0.251		% Emax cf. ACh, M1 ([1]; listed as 3-1 Isomer 2): 94%; % Emax cf. ACh, M2 ([2]; listed as 3-1 Isomer 2): 11%; % Emax cf. ACh, M3 ([3]; listed as 3-1 Isomer 2): 1%; % Emax cf. ACh, M4 ([4]; listed as 3-1 Isomer 2): 31%
CCOC(=O)N1C2CCC1CC(N1CCC3(CC1)OC(=O)NC3C(C)C)C2 (single isomer, unassigned) [Example 2-17 Isomer 1]	0.0316		> 20	2	> 20		0.02		% Emax cf. ACh, M1 ([1]; listed as 2-17 Isomer 1): 58%; % Emax cf. ACh, M3 ([3]; listed as 2-17 Isomer 1): 51%; % Emax cf. ACh, M4 ([4]; listed as 2-17 Isomer 1): 25%
C#CCOC(=O)N1C2CCCC1CC(N1CCC3(CC1)CNC(=O)C3)C2 (single isomer, unassigned) [Example 5-2 Isomer 1, prop-2-yn-1-yl 3-(3-oxo-2,8-diazaspiro[4.5]dec-8-yl)-9-azabicyclo[3.3.1]nonane-9-carboxylate]	0.1		> 20	3	> 20		0.0794	37	% Emax cf. ACh, M1 ([1]; listed as 5-2 Isomer 1): 78%; % Emax cf. ACh, M3 ([3]; listed as 5-2 Isomer 1): 9%
[2H]C([2H])([2H])COC(=O)N1C2CCC1CC(N1CCC3(CC1)CNC(=O)C3)C2 (single isomer, unassigned) [Example 2-31 Isomer 2]	0.0251		> 20	11	> 20	8	0.0251		% Emax cf. ACh, M1 ([1]; listed as 2-31 Isomer 2): 76%; % Emax cf. ACh, M4 ([4]; listed as 2-31 Isomer 2): 26%
